Measured values as given in ChEMBL document CHEMBL6071157, “Improved N-phenylpyrrolamide inhibitors of DNA gyrase as antibacterial agents for high-priority bacterial strains” (Eur J Med Chem, 2024).
pIC50: −log10 of the molar value. Converted amounts (≈) assume the structure as drawn.

Target: DNA gyrase (Escherichia coli, UniProt P0AES4+P0AES6)
Assay: Inhibition of Escherichia coli DNA gyrase by supercoiling plate assay
Type: protein-complex assay
Settings: not given

Compared with `Cc1[nH]c(C(=O)Nc2ccc(-c3noc(=O)[nH]3)cc2N2CCCC(CN)C2)c(Cl)c1Cl.Cl` (stereo not drawn), `Cc1[nH]c(C(=O)Nc2ccc(-c3noc(=O)[nH]3)cc2N2CCN(c3ccccc3)CC2)c(Cl)c1Cl` is 1.54 log units lower in pIC50: 8.50 for the first, 6.96 for the second. The first is the more potent here.

Molecule `Cc1[nH]c(C(=O)Nc2ccc(-n3nn[nH]c3=O)cc2N2Cc3ccccc3C2)c(Cl)c1Cl` has a pIC50 of 6.95.

Target: DNA gyrase (Staphylococcus aureus, UniProt P0A0K8+P20831)
Sequence (P0A0K8 whole entry): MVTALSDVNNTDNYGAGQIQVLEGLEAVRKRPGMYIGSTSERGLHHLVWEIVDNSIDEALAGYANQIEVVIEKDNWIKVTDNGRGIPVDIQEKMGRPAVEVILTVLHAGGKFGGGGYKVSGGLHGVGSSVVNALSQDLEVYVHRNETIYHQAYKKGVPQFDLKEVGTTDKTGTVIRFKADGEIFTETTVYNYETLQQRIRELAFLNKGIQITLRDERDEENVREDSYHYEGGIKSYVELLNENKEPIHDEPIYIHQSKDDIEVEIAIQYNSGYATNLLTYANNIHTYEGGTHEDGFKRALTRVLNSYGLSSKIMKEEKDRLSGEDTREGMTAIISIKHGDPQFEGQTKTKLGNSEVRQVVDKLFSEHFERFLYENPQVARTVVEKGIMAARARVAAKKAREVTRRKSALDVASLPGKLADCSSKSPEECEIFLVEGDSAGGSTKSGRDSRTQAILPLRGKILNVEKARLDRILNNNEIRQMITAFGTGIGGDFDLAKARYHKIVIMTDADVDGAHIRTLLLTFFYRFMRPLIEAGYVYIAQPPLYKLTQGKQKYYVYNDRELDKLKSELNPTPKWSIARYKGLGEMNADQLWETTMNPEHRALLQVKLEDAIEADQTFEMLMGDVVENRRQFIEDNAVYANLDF
Sequence (P20831 whole entry): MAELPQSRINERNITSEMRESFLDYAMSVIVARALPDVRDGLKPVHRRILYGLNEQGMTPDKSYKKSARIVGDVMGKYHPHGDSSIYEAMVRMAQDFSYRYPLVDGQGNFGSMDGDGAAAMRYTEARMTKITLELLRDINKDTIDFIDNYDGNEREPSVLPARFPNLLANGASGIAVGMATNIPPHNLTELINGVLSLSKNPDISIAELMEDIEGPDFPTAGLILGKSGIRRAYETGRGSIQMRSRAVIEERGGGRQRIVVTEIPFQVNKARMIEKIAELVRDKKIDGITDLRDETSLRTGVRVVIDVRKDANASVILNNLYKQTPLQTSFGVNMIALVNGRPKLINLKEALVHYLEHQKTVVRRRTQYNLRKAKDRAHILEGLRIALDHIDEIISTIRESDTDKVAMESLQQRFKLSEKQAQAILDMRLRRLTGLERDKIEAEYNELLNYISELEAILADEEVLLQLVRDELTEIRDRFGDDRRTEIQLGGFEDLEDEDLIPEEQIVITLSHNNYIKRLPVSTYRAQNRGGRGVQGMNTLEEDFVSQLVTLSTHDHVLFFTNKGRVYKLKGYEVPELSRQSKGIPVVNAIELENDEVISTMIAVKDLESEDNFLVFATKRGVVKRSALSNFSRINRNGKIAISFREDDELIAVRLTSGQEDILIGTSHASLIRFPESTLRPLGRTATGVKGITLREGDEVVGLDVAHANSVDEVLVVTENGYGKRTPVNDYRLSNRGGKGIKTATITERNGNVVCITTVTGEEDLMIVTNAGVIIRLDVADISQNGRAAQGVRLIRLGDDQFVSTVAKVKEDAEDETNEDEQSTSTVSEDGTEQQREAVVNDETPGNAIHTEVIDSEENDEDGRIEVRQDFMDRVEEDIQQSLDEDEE
Assay: Inhibition of Staphylococcus aureus DNA gyrase by supercoiling plate assay
Type: protein-complex assay
Settings: not given

Molecule `Cc1[nH]c(C(=O)Nc2ccc(-c3noc(=O)[nH]3)cc2N2CCCC(CN)C2)c(Cl)c1Cl.Cl` (stereo not drawn) has a pIC50 of 7.62.

Test system: not listed separately
Assay: Inhibition of Escherichia coli DNA topoisomerase-IV relaxation plate assay
Settings: not given

`Cc1[nH]c(C(=O)Nc2ccc(-c3noc(=O)[nH]3)cc2N2CCCC(CN)C2)c(Cl)c1Cl.Cl` (stereo not drawn) showed a pIC50 of 7.38.

Test system: Escherichia coli
Assay: Inhibition of Escherichia coli DNA topoisomerase-IV assessed as residual activity at 10 uM by relaxation plate assay relative to control
Settings: not given

First: Cc1[nH]c(C(=O)Nc2ccc(-c3noc(=O)[nH]3)cc2N2CCN(c3ccccc3)CC2)c(Cl)c1Cl
Second: Cc1[nH]c(C(=O)Nc2ccc(-n3nn[nH]c3=O)cc2N2Cc3ccccc3C2)c(Cl)c1Cl
The Activity of the first is lower: 71% for the first, 105% for the second.

Target: DNA topoisomerase 2-alpha (Homo sapiens, UniProt P11388)
Sequence (P11388 whole entry): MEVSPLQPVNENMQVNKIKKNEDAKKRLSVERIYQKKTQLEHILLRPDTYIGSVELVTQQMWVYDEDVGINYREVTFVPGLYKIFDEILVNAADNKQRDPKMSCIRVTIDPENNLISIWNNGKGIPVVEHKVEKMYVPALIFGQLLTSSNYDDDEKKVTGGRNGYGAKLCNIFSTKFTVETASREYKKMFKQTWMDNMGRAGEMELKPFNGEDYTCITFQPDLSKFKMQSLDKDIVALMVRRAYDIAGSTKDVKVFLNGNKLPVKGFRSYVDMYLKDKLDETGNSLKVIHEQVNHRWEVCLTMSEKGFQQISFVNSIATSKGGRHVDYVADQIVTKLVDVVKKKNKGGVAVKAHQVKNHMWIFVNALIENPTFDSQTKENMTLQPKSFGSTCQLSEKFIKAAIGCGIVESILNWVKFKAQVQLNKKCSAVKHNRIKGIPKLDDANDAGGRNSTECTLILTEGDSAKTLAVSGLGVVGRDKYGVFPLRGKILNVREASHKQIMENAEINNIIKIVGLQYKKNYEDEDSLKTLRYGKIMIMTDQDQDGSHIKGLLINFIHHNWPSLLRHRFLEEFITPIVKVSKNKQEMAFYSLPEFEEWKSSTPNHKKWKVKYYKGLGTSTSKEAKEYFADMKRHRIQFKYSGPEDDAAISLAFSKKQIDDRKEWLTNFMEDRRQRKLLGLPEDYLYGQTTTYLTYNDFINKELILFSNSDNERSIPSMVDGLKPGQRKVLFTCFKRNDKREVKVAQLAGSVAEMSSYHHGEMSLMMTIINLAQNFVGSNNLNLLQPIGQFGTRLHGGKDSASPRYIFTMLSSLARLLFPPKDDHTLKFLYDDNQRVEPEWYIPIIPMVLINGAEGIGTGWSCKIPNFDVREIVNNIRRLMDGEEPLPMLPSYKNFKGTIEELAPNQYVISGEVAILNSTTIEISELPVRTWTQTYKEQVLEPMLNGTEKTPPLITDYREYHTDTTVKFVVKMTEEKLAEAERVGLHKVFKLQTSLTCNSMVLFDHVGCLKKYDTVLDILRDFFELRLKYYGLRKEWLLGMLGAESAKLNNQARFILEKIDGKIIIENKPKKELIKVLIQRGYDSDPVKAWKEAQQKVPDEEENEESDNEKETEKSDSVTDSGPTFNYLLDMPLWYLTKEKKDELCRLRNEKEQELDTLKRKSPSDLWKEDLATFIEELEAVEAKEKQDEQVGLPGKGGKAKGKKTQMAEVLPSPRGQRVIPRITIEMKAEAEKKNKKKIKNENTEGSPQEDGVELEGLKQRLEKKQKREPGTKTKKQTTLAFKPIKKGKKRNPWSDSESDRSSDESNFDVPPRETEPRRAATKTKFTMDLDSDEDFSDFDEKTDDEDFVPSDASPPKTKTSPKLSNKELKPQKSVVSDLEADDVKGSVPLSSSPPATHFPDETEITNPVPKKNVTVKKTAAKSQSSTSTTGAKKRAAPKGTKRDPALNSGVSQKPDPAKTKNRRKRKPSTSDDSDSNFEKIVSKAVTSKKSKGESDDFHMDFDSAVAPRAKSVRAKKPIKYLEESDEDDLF
Assay: Inhibition of human DNA topoisomerase 2-alpha using linear pBR322 as substrate assessed as conversion of NADH to NAD+ by measuring residual activity at 100 uM preincubated for 10 to 15 mins in presence of pyruvate kinase/lactate dehydrogenase mix followed by ATP addition and measured after 30 mins by ATPase assay relative to control
Settings: time 40-55 min

First: Cc1[nH]c(C(=O)Nc2ccc(-c3noc(=O)[nH]3)cc2N2CCCC(CN)C2)c(Cl)c1Cl.Cl (stereo not drawn)
Second: Cc1[nH]c(C(=O)Nc2ccc(-c3noc(=O)[nH]3)cc2N2CCN(c3ccccc3)CC2)c(Cl)c1Cl
The Activity of the first is lower: 93% for the first, 98% for the second.

`Cc1[nH]c(C(=O)Nc2ccc(-n3nn[nH]c3=O)cc2N2Cc3ccccc3C2)c(Cl)c1Cl` showed an Activity of 97%.

Test system: Staphylococcus aureus
Assay: Antibacterial activity against Staphylococcus aureus ATCC 29213 assessed as inhibition of bacterial growth by broth microdilution method
Type: functional
Settings: not given

`Cc1[nH]c(C(=O)Nc2ccc(-c3noc(=O)[nH]3)cc2N2CCCC(CN)C2)c(Cl)c1Cl.Cl` (stereo not drawn) and `Cc1[nH]c(C(=O)Nc2ccc(-c3noc(=O)[nH]3)cc2N2CCN(c3ccccc3)CC2)c(Cl)c1Cl` are the same in MIC: 4 µg/mL for the first, 4 µg/mL (≈ 7.79 µM) for the second.

Molecule `Cc1[nH]c(C(=O)Nc2ccc(-n3nn[nH]c3=O)cc2N2Cc3ccccc3C2)c(Cl)c1Cl` has an MIC of 16 µg/mL (≈ 34 µM).

Test system: Staphylococcus aureus
Assay: Antibacterial against methicillin resistant Staphylococcus aureus ATCC 43300 assessed as inhibition of bacterial growth by broth microdilution method
Type: functional
Settings: time 24 hrs

First: Cc1[nH]c(C(=O)Nc2ccc(-c3noc(=O)[nH]3)cc2N2CCCC(CN)C2)c(Cl)c1Cl.Cl (stereo not drawn)
Second: Cc1[nH]c(C(=O)Nc2ccc(-c3noc(=O)[nH]3)cc2N2CCN(c3ccccc3)CC2)c(Cl)c1Cl
The MIC of the first is 63-fold higher: 4 µg/mL for the first, 0.063 µg/mL (≈ 0.123 µM) for the second.

For `Cc1[nH]c(C(=O)Nc2ccc(-n3nn[nH]c3=O)cc2N2Cc3ccccc3C2)c(Cl)c1Cl`, the MIC was > 64 µg/mL.

Test system: Staphylococcus aureus
Assay: Antibacterial against vancomycin-intermediate Staphylococcus aureus ATCC 700699 assessed as inhibition of bacterial growth by broth dilution method
Type: functional
Settings: not given

`Cc1[nH]c(C(=O)Nc2ccc(-c3noc(=O)[nH]3)cc2N2CCCC(CN)C2)c(Cl)c1Cl.Cl` (stereo not drawn) and `Cc1[nH]c(C(=O)Nc2ccc(-c3noc(=O)[nH]3)cc2N2CCN(c3ccccc3)CC2)c(Cl)c1Cl` are the same in MIC: 2 µg/mL for the first, 2 µg/mL (≈ 3.9 µM) for the second.

For `Cc1[nH]c(C(=O)Nc2ccc(-n3nn[nH]c3=O)cc2N2Cc3ccccc3C2)c(Cl)c1Cl`, the MIC was > 64 µg/mL.

Test system: Enterococcus faecalis
Assay: Antibacterial activity against Enterococcus faecalis ATCC 29212 assessed as inhibition of bacterial growth by broth microdilution method
Type: functional
Settings: not given

First: Cc1[nH]c(C(=O)Nc2ccc(-c3noc(=O)[nH]3)cc2N2CCCC(CN)C2)c(Cl)c1Cl.Cl (stereo not drawn)
Second: Cc1[nH]c(C(=O)Nc2ccc(-c3noc(=O)[nH]3)cc2N2CCN(c3ccccc3)CC2)c(Cl)c1Cl
The MIC of the first is 2-fold higher: 0.25 µg/mL for the first, 0.125 µg/mL (≈ 0.243 µM) for the second.

Work on `Cc1[nH]c(C(=O)Nc2ccc(-n3nn[nH]c3=O)cc2N2Cc3ccccc3C2)c(Cl)c1Cl` yielded an MIC of 0.25 µg/mL (≈ 0.532 µM).

Test system: Enterococcus faecium
Assay: Antibacterial activity against vancomycin-resistant Enterococcus faecium ATCC 700221 assessed as inhibition of bacterial growth by broth microdilution method
Type: functional
Settings: not given

First: Cc1[nH]c(C(=O)Nc2ccc(-c3noc(=O)[nH]3)cc2N2CCCC(CN)C2)c(Cl)c1Cl.Cl (stereo not drawn)
Second: Cc1[nH]c(C(=O)Nc2ccc(-c3noc(=O)[nH]3)cc2N2CCN(c3ccccc3)CC2)c(Cl)c1Cl
The MIC of the first is 2-fold lower: 2 µg/mL for the first, 4 µg/mL (≈ 7.79 µM) for the second.

For `Cc1[nH]c(C(=O)Nc2ccc(-n3nn[nH]c3=O)cc2N2Cc3ccccc3C2)c(Cl)c1Cl`, the MIC was 0.5 µg/mL (≈ 1.06 µM).

Test system: Escherichia coli
Assay: Antibacterial activity against Escherichia coli ATCC 25922 assessed as inhibition of bacterial growth by broth microdilution method
Type: functional
Settings: not given

`Cc1[nH]c(C(=O)Nc2ccc(-c3noc(=O)[nH]3)cc2N2CCCC(CN)C2)c(Cl)c1Cl.Cl` (stereo not drawn) and `Cc1[nH]c(C(=O)Nc2ccc(-c3noc(=O)[nH]3)cc2N2CCN(c3ccccc3)CC2)c(Cl)c1Cl` cannot be ordered by MIC: > 64 µg/mL for the first, > 64 µg/mL for the second.

In the case of `Cc1[nH]c(C(=O)Nc2ccc(-n3nn[nH]c3=O)cc2N2Cc3ccccc3C2)c(Cl)c1Cl`, the MIC was > 64 µg/mL.

Test system: Enterobacter cloacae
Assay: Antibacterial activity against Enterobacter cloacae subsp. cloacae ATCC 13047 assessed as inhibition of bacterial growth by broth microdilution method
Type: functional
Settings: not given

`Cc1[nH]c(C(=O)Nc2ccc(-c3noc(=O)[nH]3)cc2N2CCCC(CN)C2)c(Cl)c1Cl.Cl` (stereo not drawn) and `Cc1[nH]c(C(=O)Nc2ccc(-c3noc(=O)[nH]3)cc2N2CCN(c3ccccc3)CC2)c(Cl)c1Cl` cannot be ordered by MIC: > 64 µg/mL for the first, > 64 µg/mL for the second.

In the case of `Cc1[nH]c(C(=O)Nc2ccc(-n3nn[nH]c3=O)cc2N2Cc3ccccc3C2)c(Cl)c1Cl`, the MIC was > 64 µg/mL.

Test system: Pseudomonas aeruginosa
Assay: Antibacterial activity against Pseudomonas aeruginosa ATCC 27853 assessed as inhibition of bacterial growth by broth microdilution metho
Type: functional
Settings: not given

`Cc1[nH]c(C(=O)Nc2ccc(-c3noc(=O)[nH]3)cc2N2CCCC(CN)C2)c(Cl)c1Cl.Cl` (stereo not drawn) and `Cc1[nH]c(C(=O)Nc2ccc(-c3noc(=O)[nH]3)cc2N2CCN(c3ccccc3)CC2)c(Cl)c1Cl` cannot be ordered by MIC: > 64 µg/mL for the first, > 64 µg/mL for the second.

With `Cc1[nH]c(C(=O)Nc2ccc(-n3nn[nH]c3=O)cc2N2Cc3ccccc3C2)c(Cl)c1Cl` the MIC was > 64 µg/mL.

Test system: Klebsiella pneumoniae
Assay: Antibacterial activity against Klebsiella pneumoniae ATCC 10031 assessed as inhibition of bacterial growth by broth microdilution method
Type: functional
Settings: not given

Compared with `Cc1[nH]c(C(=O)Nc2ccc(-c3noc(=O)[nH]3)cc2N2CCCC(CN)C2)c(Cl)c1Cl.Cl` (stereo not drawn), `Cc1[nH]c(C(=O)Nc2ccc(-c3noc(=O)[nH]3)cc2N2CCN(c3ccccc3)CC2)c(Cl)c1Cl` is higher in MIC: 2 µg/mL for the first, > 64 µg/mL for the second.

In the case of `Cc1[nH]c(C(=O)Nc2ccc(-n3nn[nH]c3=O)cc2N2Cc3ccccc3C2)c(Cl)c1Cl`, the MIC was > 64 µg/mL.

Test system: Acinetobacter baumannii
Assay: Antibacterial activity against Acinetobacter baumannii ATCC 17978 assessed as inhibition of bacterial growth by broth microdilution method
Type: functional
Settings: not given

`Cc1[nH]c(C(=O)Nc2ccc(-c3noc(=O)[nH]3)cc2N2CCCC(CN)C2)c(Cl)c1Cl.Cl` (stereo not drawn) and `Cc1[nH]c(C(=O)Nc2ccc(-c3noc(=O)[nH]3)cc2N2CCN(c3ccccc3)CC2)c(Cl)c1Cl` cannot be ordered by MIC: > 64 µg/mL for the first, > 64 µg/mL for the second.

In the case of `Cc1[nH]c(C(=O)Nc2ccc(-n3nn[nH]c3=O)cc2N2Cc3ccccc3C2)c(Cl)c1Cl`, the MIC was > 64 µg/mL.

Test system: MCF7
Assay: Cytotoxicity against human MCF7 cells assessed as cell viability at 50 uM incubated for 72 hrs by CellTiter 96 aqueous one solution reagent based MTS assay relative to control
Type: functional
Settings: read-out: Activity

First: Cc1[nH]c(C(=O)Nc2ccc(-c3noc(=O)[nH]3)cc2N2CCCC(CN)C2)c(Cl)c1Cl.Cl (stereo not drawn)
Second: Cc1[nH]c(C(=O)Nc2ccc(-c3noc(=O)[nH]3)cc2N2CCN(c3ccccc3)CC2)c(Cl)c1Cl
The viability at 50 µM of the first is higher: 88% for the first, 68% for the second.

`Cc1[nH]c(C(=O)Nc2ccc(-n3nn[nH]c3=O)cc2N2Cc3ccccc3C2)c(Cl)c1Cl` showed a viability at 50 µM of 89%.

Test system: not listed separately
Assay: Metabolic stability in human liver microsomes assessed as half life at 1 uM preincubated for 10 mins followed by NADPH addition and measured after 5 to 60 mins by LC-MS/MS analysis
Type: ADME, Microsome
Settings: time 15-70 min

Going from `C[C@]12CC[C@H]3[C@@H](CCC4=CC(=O)CC[C@@]43C)[C@@H]1CC[C@@H]2O` [TESTOSTERONE] to `Cc1[nH]c(C(=O)Nc2ccc(-c3noc(=O)[nH]3)cc2N2CCN(c3ccccc3)CC2)c(Cl)c1Cl`, the half-life at 1 µM rises from 22.7 min to > 145 min.

In the case of `Cc1[nH]c(C(=O)Nc2ccc(-n3nn[nH]c3=O)cc2N2Cc3ccccc3C2)c(Cl)c1Cl`, the half-life at 1 µM was 80 min.

Test system: not listed separately
Assay: Metabolic stability in human liver microsomes assessed as intrinsic clearance at 1 uM preincubated for 10 mins followed by NADPH addition and measured after 5 to 60 mins by LC-MS/MS analysis
Type: ADME, Microsome
Settings: time 15-70 min, read-out: CLH

Going from `O=C(O)Cc1ccccc1Nc1c(Cl)cccc1Cl` [DICLOFENAC] to `Cc1[nH]c(C(=O)Nc2ccc(-c3noc(=O)[nH]3)cc2N2CCN(c3ccccc3)CC2)c(Cl)c1Cl`, the microsomal CLint at 1 µM falls from 238 µL/min/mg to < 9.6 µL/min/mg.

First: C[C@]12CC[C@H]3[C@@H](CCC4=CC(=O)CC[C@@]43C)[C@@H]1CC[C@@H]2O [TESTOSTERONE]
Second: Cc1[nH]c(C(=O)Nc2ccc(-n3nn[nH]c3=O)cc2N2Cc3ccccc3C2)c(Cl)c1Cl
The microsomal CLint at 1 µM of the first is 3.5-fold higher: 60.9 µL/min/mg for the first, 17.3 µL/min/mg for the second.

Test system: not listed separately
Assay: Metabolic stability in mouse liver microsomes assessed as half life at 1 uM preincubated for 10 mins followed by NADPH addition and measured after 5 to 60 mins by LC-MS/MS analysis
Type: ADME, Microsome
Settings: time 15-70 min

Compared with `O=C(O)Cc1ccccc1Nc1c(Cl)cccc1Cl` [DICLOFENAC], `Cc1[nH]c(C(=O)Nc2ccc(-c3noc(=O)[nH]3)cc2N2CCN(c3ccccc3)CC2)c(Cl)c1Cl` is higher in half-life at 1 µM: 48.8 min for the first, > 145 min for the second.

Compared with `C[C@]12CC[C@H]3[C@@H](CCC4=CC(=O)CC[C@@]43C)[C@@H]1CC[C@@H]2O` [TESTOSTERONE], `Cc1[nH]c(C(=O)Nc2ccc(-n3nn[nH]c3=O)cc2N2Cc3ccccc3C2)c(Cl)c1Cl` is higher in half-life at 1 µM: 8.2 min for the first, > 145 min for the second.

Test system: not listed separately
Assay: Metabolic stability in mouse liver microsomes assessed as intrinsic clearance at 1 uM preincubated for 10 mins followed by NADPH addition and measured after 5 to 60 mins by LC-MS/MS analysis
Type: ADME, Microsome
Settings: time 15-70 min, read-out: CLH

First: O=C(O)Cc1ccccc1Nc1c(Cl)cccc1Cl [DICLOFENAC]
Second: Cc1[nH]c(C(=O)Nc2ccc(-c3noc(=O)[nH]3)cc2N2CCN(c3ccccc3)CC2)c(Cl)c1Cl
The microsomal CLint at 1 µM of the first is higher: 28.4 µL/min/mg for the first, < 9.6 µL/min/mg for the second.

Compared with `C[C@]12CC[C@H]3[C@@H](CCC4=CC(=O)CC[C@@]43C)[C@@H]1CC[C@@H]2O` [TESTOSTERONE], `Cc1[nH]c(C(=O)Nc2ccc(-n3nn[nH]c3=O)cc2N2Cc3ccccc3C2)c(Cl)c1Cl` is lower in microsomal CLint at 1 µM: 169 µL/min/mg for the first, < 9.6 µL/min/mg for the second.
